The subject of this assay is Male WistarF/Han (WF) rats. The assay can be described thus: Elevated plus maze (EPM) testing, i.c.v. P32/98. It is filed as in vivo, rat. As for the experimental part:
Animals. […]
Elevated plus maze (EPM) testing. […] The following parameters were calculated: Total numbers of arm entries (TA); entries to closed arms (CA); entries to open arms (OA); percentage frequency of entries to open arms (% OA: OA×100/TA); total trial duration (TT): 300 s; duration of stay in closed arms (closed time; CLT); percentage share of CLT in total arms-stay duration (CLT×100/AT); duration of stay in open arms (open time; OT) and percentage share of OT in total arm-stay duration (% OT: OT×100/AT). In addition to the standard spatiotemporal measurements, “time spent and percentage of time on the central square” were recorded (center time, CT: duration of stay on platform in seconds; percentage share of CT in trial duration, % CT: CT×100/TT). […]

Each structure is given as a SMILES string.

The source of these data is patent publication US8168199B2, “Dipeptidyl peptidase IV inhibitors for the treatment of schizophrenia and depression” (priority 2000, dated 2012).

Consider `CC[C@H](C)[C@H](N)C(=O)N1CCSC1` [P32/98], for which, where the note is “i.c.v. aCSF, 0.05, 5, 500 nmol”, the “effect of treatment on percentage of time spent on the open arms (analysis of variance)” value is given as “significant effect”. Besides, the “percentage of time spent on the open arms of the EPM” value (i.c.v. low dose 50 pmol, 60 min before test, vs aCSF) was “increased”.
